Values quoted from earlier work as cited in patent publication US20090298852A1, “Pellet-form slow-release preparation for vertigo” (priority 2005, published 2009).

C(=C\c1ccccc1)/CN1CCN(C(c2ccccc2)c2ccccc2)CC1 [cinnarizine, 1-benzhydryl-4-trans-cinnamylpiperazine]
solubility in water: approximately 2 mg/100 ml
